Earlier results on one molecule are cited in patent US8920835B2, “Paliperidone double-layered osmotic pump controlled release tablet and preparation method thereof” (Shanghai Institute of Materia Medica, Chinese Academy of …, priority 2009, dated 2014).

For data set [1] the following is noted: in vivo.

For `Cc1nc2n(c(=O)c1CCN1CCC(c3noc4cc(F)ccc34)CC1)CCCC2O` (stereo not drawn) [Paliperidone], the “plasma protein binding rate” value is reported as 74%. Moreover, in data set [1], the “apparent volume of distribution” value was 487 L and the “half-life of the terminal elimination phase” value is listed as “about 23 h”.
